Results from patent US20090011410A1, “METHOD FOR TAILORING ADMINISTRATION OF DRUGS BY QUANTITATION OF MRNA” (priority 2004, published 2009).

Tested on: BAX mRNA
Assay: drug-induced BAX mRNA expression in whole blood of healthy adults
Type: cell-based, human
Details: for Bax induction: 20 μM BLM or 100 μM VP-16, 4 hours at 37° C., ΔCt smaller than p21, not induced in 1 or 2 individuals (FIG. 6); for BAX responses compared with p21 and PUMA: 100 μM VP-16 or 20 μM BLM, 2 hours at 37° C., p<0.01 (FIG. 14)
Text: Blood was obtained from healthy adults and from two leukemic non-Hodgkin's malignant lymphoma patients. U937, KG-1, and Jurkat cells were obtained from American Type Culture Collection (ATCC, Manassas, Va.), and maintained in RPMI 1640 supplemented with 10% fetal calf serum. Of these, U937 cells are a human histiocytic lymphoma cell line, KG-1 cells are a human bone marrow myelogenous leukemia cell line, and Jurkat cells are a human T-cell lymphoblast-like, leukemia derived cell line. […] For human experiments, blood aliquots were stimulated with various anti-cancer drugs at 37° C. for 2 hours, then both p21 and BAX mRNA were measured. The anti-cancer drugs used in this study were clinical drugs, and the concentration of each drug was adjusted to typical blood levels 3-6 hours after intravenous administration.
The mRNA and cDNA were prepared from whole blood. In brief, home-made 96-well filterplates were placed over collection plates, and 150 μl 5 mM Tris, pH 7.4, was applied. Following centrifugation at 120×g for 1 min at 4° C., 50 μl of blood samples were applied to each well and immediately centrifuged at 120×g for 2 min at 4° C., followed by washing of each well with 300 μl PBS once with centrifugation at 2000×g for 5 min at 4° C. Then, 60 μl stock lysis buffer, containing for example 0.5% N-Lauroylsarcosine, 4×SSC, 10 mM Tris HCl, pH 7.4, 1 mM EDTA, 0.1% IGEPAL CA-630, and 1.791 M guanidine thiocyanate, supplemented with 1% 2-mercaptoethanol (Bio Rad, Hercules, Calif., USA), 0.5 mg/ml proteinase K (Pierce, Rockford, Ill., USA), 0.1 mg/ml salmon sperm DNA (5 Prime Eppendorf/Brinkmann, Westbury, N.Y., USA), 0.1 mg/ml E. coli tRNA (Sigma), a cocktail of 10 mM each of the specific reverse primers shown in Table 1, and standard RNA34 oligonucleotides, were applied to the filterplates, followed by incubation at 37° C. for 10 min. The filterplates were then placed over oligo(dT)-immobilized microplates (GenePlate, RNAture), and centrifuged at 2000×g for 5 min at 4° C. Following overnight storage at 4° C., the microplates were washed with 100 μl plain lysis buffer 3 times, followed by 150 μl of wash buffer (0.5 M NaCl, 10 mM Tris, pH 7.4, 1 mM EDTA) 3 times at 4° C. The cDNA was directly synthesized in each well by adding 30 μl buffer containing 1× RT-butter, 1.25 mM each of dNTP, 4 units rRNasin, and 80 units of MMLV reverse transcriptase (Promega) (without primers), and incubation at 37° C. for 2 hours. The specific primer-primed cDNA existed in solution, and oligo(dT)-primed cDNA stayed immobilized in the microplate. […] The Ct was determined by analytical software (SDS, ABI). […]

bleomycin [BLM]
Bax induction: induced | BAX responses compared with p21 and PUMA: significantly less than those of p21 and PUMA

COc1cc([C@@H]2c3cc4c(cc3[C@@H](O[C@@H]3O[C@@H]5CO[C@@H](C)O[C@H]5[C@H](O)[C@H]3O)[C@H]3COC(=O)[C@H]23)OCO4)cc(OC)c1O [VP-16, etoposide]
Bax induction: induced | BAX responses compared with p21 and PUMA: significantly less than those of p21 and PUMA
